The target in one assay is T1, SIG-1R/BiP (Homo sapiens, UniProt Q99720).
T1 construct: host or cells: CHO cells overexpressing GFP-SIG-1R
Kind of assay: SIG-1R/BiP dissociation assay in GFP-SIG-1R-overexpressing CHO cells. The format is cell-based. The note with it: for dissociation of SIG-1R from BiP (in words) / dissociation of the SIG-1R/BiP complex (in words): compound alone; for dissociation of the SIG-1R/BiP complex (in words): no concentration stated. Here is the method: CHO cells which overexpress GFP tagged-SIG-1R (gift from Tsung-Ping Su, NIDA/NIH, Baltimore, MD, USA) were maintained in DMEM/Glutamax culture medium supplemented with 10% heat inactivated FBS. GFP-SIG-1Roe CHO cells were plated in 6-well plates and treated with test compounds dissolved in culture medium for 30 min at 37°C. The reaction was terminated by removing the culture medium containing the test drug and replacing it with 1 ml of PBS. GFP-SIG-1R-oe CHO cells were harvested and suspended in PBS (pH 7.4) followed by cross-linking with 50 µg/ml of dithiobis succinimidyl propionate (ThermoFisher, France). The reaction was stopped by adding Tris/HCl 50 mM (pH 8.8). After a 15 min incubation on ice, cells were lysed with 50 mM Tris (pH 7.4), 150 mM NaCl, 1% Triton X/100, 0.3% sodium deoxycholate, 0.1% SDS buffer containing a protease inhibitor cocktail (Sigma-Aldrich, France). After centrifugation at 16,000 g for 1 min, the supernatant was incubated with Chromotek GFP-trap agarose (Proteintech, United Kingdom) overnight at 4°C.

The test system of assay [1] is Aβ25-35-induced learning impairments in mice. Kind of assay: Spontaneous alternation in the Y-maze, Aβ25-35 model of Alzheimer's disease. In kind it is in vivo. As to conditions: 0.3-3 mg/kg IP, all doses, single administration on day 1, test on day 8. As to the method:
(§1) Amyloid-β[25-35] peptide (Aβ25-35) was from Eurogentec (Angers, France). It was solubilized in distilled water at 3 mg/ml and stored at -20°C until use. Before injection, the peptide was incubated at 37°C for 4 days, allowing oligomerization. Control injection was performed with vehicle solution (distilled water), and intracerebroventricularly (ICV) injections were done as described previously (Maurice et al., 1996, 2019).
The Y-maze is made of grey polyvinylchloride. Each arm is 40 cm long, 13 cm high, 3 cm wide at the bottom, 10 cm wide at the top, and converging at an equal angle. Each mouse was placed at the end of one arm and allowed to move freely through the maze during an 8 min session. The series of arm entries, including possible returns into the same arm, were checked visually. An alternation is defined as entries into all three arms on consecutive occasions. The number of maximum alternations is therefore the total number of arm entries minus two and the percentage of alternation was calculated as (actual alternations / maximum alternations) × 100 (Maurice et al., 1996; Meunier et al., 2006, 2013). Exclusion criteria are locomotion < 10 or percentage of alternation < 25% or > 90%. Animals showing these readouts are excluded from the calculations. Attrition is routinely < 5% in this test. […]

For the next assay, the target named is T2, SIG-1R (Homo sapiens, UniProt Q99720).
T2 construct: incubated with 15 nM of [^3H](+)-pentazocine in membranes preparations from Jurkat human leukemic T cells; host or cells: Jurkat human leukemic T cells (membrane preparation)
Kind of assay: In vitro binding to SIG-1R ([3H](+)-pentazocine, Jurkat cell membranes, CEREP). As to conditions: for inhibition of the binding / displacement of SIG-1R radioligand (in words): no concentration stated. As to the method: (§2) The assay was performed by CEREP (Celle l'Evescault, France) (study 100062023). SIG-1R binding was performed according to Ganapathy et al. (1999). Increasing drug concentrations (100 nM to 30 µM) were incubated with 15 nM of [^3H](+)-pentazocine in membranes preparations from Jurkat human leukemic T cells. Samples were incubated during 120 min at 37°C and nonspecific binding level was determined using 10 µM of haloperidol. S2R binding was performed according to Ganapathy et al. (1999). Increasing drug concentrations (100 nM to 30 µM) were incubated with 25 nM of [^3H]ditolyl-guanidine in membranes preparations from Jurkat human leukemic T cells. Samples were incubated during 60 min at room temperature and nonspecific binding level was determined using 10 µM of haloperidol. Assays were performed in duplicates and results were expressed as % of specific binding level.

In a further assay the target is T3, S2R (Homo sapiens, UniProt Q5BJF2).
T3 construct: 25 nM of [^3H]ditolyl-guanidine in membranes preparations from Jurkat human leukemic T cells; host or cells: Jurkat human leukemic T cells (membrane preparation)
Kind of assay: In vitro binding to S2R ([3H]ditolyl-guanidine, Jurkat cell membranes, CEREP). The note with it: membranes from Jurkat human leukemic T cells, 25 nM radioligand; read-out: IC50 for [3H]DTG binding (S2R / SIG-2R affinity). As to the method:
as §2

Assay [2] relates to Aβ25-35-induced learning impairments in mice. As to the kind of experiment: Step-through passive avoidance, Aβ25-35 model of Alzheimer's disease. In kind it is in vivo. As to conditions: 0.3-3 mg/kg IP, single administration on day 1. Here is the method:
as §1
The apparatus is a two-compartments (15 × 20 × 15 cm high) box with one illuminated with white polyvinylchloride walls and the other darkened with black polyvinylchloride walls and a grid floor. A guillotine door separates each compartment. A 60 W lamp positioned 40 cm above the apparatus lights up the white compartment during the experiment. Scrambled foot shocks (0.3 mA for 3 s) could be delivered to the grid floor using a shock generator scrambler (Lafayette Instruments, Lafayette, USA). The guillotine door was initially closed during the training session. Each mouse was placed into the white compartment. After 5 s, the door was raised. […] The step-through latency (STL-Tg), that is, the latency spent to enter the darkened compartment, and the number of vocalizations were recorded. […] The step-through latency (STL-R) was recorded up to 300 s (Meunier et al., 2006, 2013; Villard et al., 2009, 2011). […] Animals showing these readouts are excluded from the calculations. […]

The results in this text go back to EP4523686A1, “A SIGMA-1 RECEPTOR POSITIVE MODULATOR FOR ITS USE IN THE PREVENTION AND THE TREATMENT OF A PATHOLOGY” (priority 2023, dated 2025).

Several values for one entry are separate records, joined by “and”; a condition that tells them apart may be missing. Equal values may be shown once.

T1 sequence (Q99720 whole entry): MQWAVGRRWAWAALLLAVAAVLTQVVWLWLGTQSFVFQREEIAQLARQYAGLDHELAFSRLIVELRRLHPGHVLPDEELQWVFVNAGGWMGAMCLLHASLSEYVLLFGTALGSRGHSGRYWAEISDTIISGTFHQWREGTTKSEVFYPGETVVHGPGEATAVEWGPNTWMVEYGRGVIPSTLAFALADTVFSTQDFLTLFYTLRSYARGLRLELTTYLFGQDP
T2 sequence (Q99720 whole entry): as above
T3 sequence (Q5BJF2 whole entry): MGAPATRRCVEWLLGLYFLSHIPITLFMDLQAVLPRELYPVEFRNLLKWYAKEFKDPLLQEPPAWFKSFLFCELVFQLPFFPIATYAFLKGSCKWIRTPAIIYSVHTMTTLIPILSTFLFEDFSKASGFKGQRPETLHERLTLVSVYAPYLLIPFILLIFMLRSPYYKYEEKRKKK

With `COc1ccc(C(=O)OC2CC3CCC(C2)N3C)cc1OC` (stereo not drawn) [Convolamine, (8-methyl-8-azabicyclo[3.2.1]octan-3-yl) 3,4-dimethoxybenzoate], the IC50 was 0.29 µM and 0.289 µM on SIG-1R/BiP (IC50 of SIG-1R positive modulatory action (displacement of PRE-084 efficacy to dissociate SIG-1R from BiP), convolamine 0.1-10 µM with PRE-084); more than 30 µM on SIG-1R; 13 µM and ~13 µM on S2R. Besides, the “dissociation of SIG-1R from BiP (in words)” value on SIG-1R/BiP (at concentrations < 10 µM) and at SIG-1R/BiP (at concentrations up to 30 µM) was “failed to dissociate SIG-1R from BiP” throughout. For the same compound, the “dissociation of the SIG-1R/BiP complex (in words)” value is recorded as “did not induce the dissociation” on SIG-1R/BiP and “does not allow the dissociation” on SIG-1R/BiP (listed as convolamine). Besides, the “Aβ25-35-induced deficit in spontaneous alternation (in words)” value in assay [1] is “significantly attenuated”. For the same compound, the “inhibition of [3H](+)-pentazocine binding to SIG-1R (in words)” value at SIG-1R (at concentrations < 10 µM) is listed as “failed to inhibit”. For the same compound, the “inhibition of the binding / displacement of SIG-1R radioligand (in words)” value at SIG-1R was “did not inhibit”; on SIG-1R (listed as convolamine), “does not displace”. In addition, the “Aβ25-35-induced deficit in the passive avoidance test (in words)” value in assay [2] was “not effective”.
